{
  "source": "patent US20200121627A1",
  "about": "“COMPOSITION COMPRISING AZELAIC ACID OR AS ACTIVE INGREDIENTS FOR MUSCLE STRENGTHENING, DEVELOPMENT, DIFFERENTIATION, REGENERATION OR INHIBITING MUSCLE ATROPHY” (priority 2018, published 2020)",
  "key": {"[1]": {"system": "Mouse myoblast cell line (C2C12 cells)", "experiment": "Myotube length in differentiating mouse myoblasts (muscle-potentiating efficacy), Wright-Giemsa staining", "type": "cell-based", "conditions": "100 μM azelaic acid for two days from the day differentiation began, vs DMSO control", "protocol": "(§1) Mouse myoblast cell line (C2C12 cells) was purchased from ATCC (Manassas, Va., USA) and used. The purchased cell line was incubated in an incubator at 37° C., 5% CO2 using 10% fetal bovine serum medium (Gibco-BRL) and used for experiments. […] In order to identify muscle-potentiating efficacy, treatment with 100 μM azelaic acid (CAS Number 123-99-9, Sigma) was performed for two days from the day when differentiation began, and a control was treated with 100 μM dimethyl sulfoxide (DMSO; Sigma). […] Sigma) and 100 μM azelaic acid (CAS Number 123-99-9, Sigma) was performed for two days from the 4th day of differentiation. The cells were washed twice with phosphate buffered saline (PBS), and then fixed for 10 minutes with 100% methanol. […] Co., Ltd., Seoul, South Korea) that specifically stains myotubes. Stained myotubes were photographed at ×40 magnification using a fluorescence microscope (IX 71, Olympus) and analyzed using Image J software (USA). Six sections of each well were randomly selected and micrographed. Lengths of at least 100 myotubes from each well were analyzed (3 repetitions/group)."}, "[2]": {"system": "Mouse myoblast cell line (C2C12 cells)", "experiment": "Myotube length in dexamethasone-treated mouse myoblasts (muscle loss-inhibitory efficacy), Wright-Giemsa staining", "type": "cell-based", "conditions": "100 μM azelaic acid combined with 50 μM dexamethasone for two days from the 4th day of differentiation", "protocol": "as §1"}, "[3]": {"system": "IGF1", "experiment": "Real-time PCR mRNA expression in mouse myoblasts", "type": "cell-based", "conditions": "azelaic acid treatment of dexamethasone-treated cells, vs Dexa", "protocol": "(§2) Mouse myoblast cell line (C2C12 cells) was purchased from ATCC (Manassas, Va., USA) and used. The purchased cell line was incubated in an incubator at 37° C., 5% CO2 using 10% fetal bovine serum medium (Gibco-BRL) and used for experiments. When the cell line reached a confluency of about 80%, the cells were differentiated into myotubes using 2% horse serum medium (Gibco-BRL). In order to identify muscle-potentiating efficacy, treatment with 100 μM azelaic acid (CAS Number 123-99-9, Sigma) was performed for two days from the day when differentiation began, and a control was treated with 100 μM dimethyl sulfoxide (DMSO; Sigma). In order to identify muscle loss-inhibitory efficacy, combined treatment with 50 μM dexamethasone (dexa; Sigma) and 100 μM azelaic acid (CAS Number 123-99-9, Sigma) was performed for two days from the 4th day of differentiation.\n(§3) 334 μl of Trizol solution was added per 1×10^7 cells of mouse myoblasts, and grinding was performed. Then, the resultant was centrifuged at 4° C. and 12,000×g for 10 minutes. The supernatant was transferred to a new tube. Then, 67 μl of chloroform was added thereto and vortexing was performed. Again, the supernatant was transferred to a new tube, and isopropanol was added so that a ratio of the supernatant to isopropanol was 1:1. After performing vigorous shaking 10 times, the tube was allowed to stand at room temperature for 15 minutes, and centrifuged at 12,000×g and 4° C. for 10 minutes."}, "[4]": {"system": "MAFbx/Atrogin1", "experiment": "Real-time PCR mRNA expression in mouse myoblasts", "type": "cell-based", "conditions": "azelaic acid treatment of dexamethasone-treated cells, vs Dexa", "protocol": "as §2, §3"}, "[5]": {"system": "MuRF1", "experiment": "Real-time PCR mRNA expression in mouse myoblasts", "type": "cell-based", "conditions": "azelaic acid treatment of dexamethasone-treated cells, vs Dexa", "protocol": "as §2, §3"}, "[6]": {"system": "myostatin", "experiment": "Real-time PCR mRNA expression in mouse myoblasts", "type": "cell-based", "conditions": "azelaic acid treatment of dexamethasone-treated cells, vs Dexa", "protocol": "as §2, §3"}, "[7]": {"system": "p-4E-BP1", "experiment": "Western blotting in mouse myoblasts", "type": "cell-based", "conditions": "azelaic acid treatment of dexamethasone-treated cells, vs Dexa", "protocol": "as §2, with “In order to identify muscle loss-inhibitory efficacy, combined treatment with 50 μM dexamethasone (dexa; Sigma) and 100 μM azelaic acid (CAS Number 123-99-9, Sigma) was performed for two days from the 4th day of differentiation.” left out\n(§4) In order to perform Western blotting in cells, to each well from which the medium was removed was added a lysis buffer that contains 500 μL of 100 mM Tris-HCl, pH 7.4, 5 mM EDTA, 50 mM sodium pyrophosphate, 50 mM NaF, 100 mM orthovanadate, 1% Triton X-100, 1 mM phenylmethanesulfonyl fluoride, 2 μg/mL aprotinin, 1 μg/mL pepstatin A, and 1 μg/mL leupeptin, and the cells were lysed to obtain a lysate. […] Then, the middle layer was taken and proteins were quantified according to the Bradford method (Bio-Rad). 40 μg of the quantified proteins were electrophoresed on SDS polyacrylamide gel and then transferred to nitrocellulose membranes (Amersham, Buckinghamshire, UK)."}, "[8]": {"system": "p-p70S6K1", "experiment": "Western blotting in mouse myoblasts", "type": "cell-based", "conditions": "azelaic acid treatment of dexamethasone-treated cells, vs Dexa", "protocol": "as §2, with “In order to identify muscle loss-inhibitory efficacy, combined treatment with 50 μM dexamethasone (dexa; Sigma) and 100 μM azelaic acid (CAS Number 123-99-9, Sigma) was performed for two days from the 4th day of differentiation.” left out\nas §4"}, "[9]": {"system": "rats", "conditions": "oral administration; cited from earlier work"}, "[10]": {"system": "various strains of skin microorganisms", "conditions": "0.5 mol/l (8.4% w/v) azelaic acid solution, 24 hours, all bacterial strains; cited from earlier work"}, "[11]": {"system": "interleukin-1β, interleukin-6, and TNF-α", "conditions": "human epidermal cells treated with 20 mM azelaic acid; cited from earlier work"}, "[12]": {"system": "nicotinamide adenine dinucleotide phosphate (NADP) oxidase", "conditions": "cited from earlier work"}, "[13]": {"conditions": "ethanol and water; cited from earlier work"}},
  "data": [
    {"smiles": "O=C(O)CCCCCCCC(=O)O", "note": "[azelaic acid, nonanedioic acid]", "values": [
      {"measurement": "increase in myotube length", "setting": "[1]", "result": 62, "unit": "%"},
      {"measurement": "increase in the myotube length which has decreased due to dexamethasone", "setting": "[2]", "result": 62, "unit": "%"},
      {"measurement": "expression of IGF1 gene", "setting": "[3]", "result": "significantly increased"},
      {"measurement": "expression of MAFbx/Atrogin1 gene", "setting": "[4]", "result": "significantly decreased"},
      {"measurement": "expression of MuRF1 gene", "setting": "[5]", "result": "significantly decreased"},
      {"measurement": "expression of myostatin gene", "setting": "[6]", "result": "significantly decreased"},
      {"measurement": "amount of p-4E-BP1 protein", "setting": "[7]", "result": "significantly increased"},
      {"measurement": "amount of p-p70S6K1 protein", "setting": "[8]", "result": "significantly increased"},
      {"measurement": "LD50", "setting": "[9]", "result": "15,800 mg/kg"},
      {"measurement": "decreased viability of bacterial strains", "setting": "[10]", "result": "at least 40 fold"},
      {"measurement": "mRNA expression and protein secretion of interleukin-1β, interleukin-6, and TNF-α by UVB", "setting": "[11]", "result": "inhibition"},
      {"measurement": "reaction of NADP oxidase (antioxidant effect)", "setting": "[12]", "result": "inhibiting"},
      {"measurement": "solubility", "setting": "[13]", "result": "soluble"}
    ]}
  ]
}
